Laboratory results published in US12502374B2, “Composition for preventing, alleviating, or treating inflammatory disease containing isookanin or salt thereof as active ingredient” (BioSpectrum, Inc., priority 2020, dated 2025).

Assays:
Janus kinase 1 = Janus kinase 1 (Homo sapiens, UniProt P23458); experiment: Janus kinase 1 activity inhibition, HTRF KinEASE-TK kit (TR-FRET); assay type: biochemical; conditions: FIG. 1
Description: The effect of isookanin on the inhibition of Janus kinase 1 activity was measured using the HTRF KinEASE-TK kit (Cisbio, France). HTRF is a time-resolved fluorescence resonance energy transfer technology (TR-FRET) analysis method, which is applied to high-throughput screening (HTS) and is one of the methods widely used in drug development. From general cytokine measurement, enzyme activity, protein phosphorylation, protein-protein interaction, cAMP measurement, and the like can be measured by fluorescence through acceptor/donor reaction, and HTRF has an advantage in that, since measurement is carried out in two wavelength regions, it is possible to reduce interference from buffers and media. All components of the HTRF KinEase™-TK kit were handled according to the instructions. For kinases, the ability of a test substance to inhibit kinase activity is measured by allowing a kinase to react with an appropriate substrate in the presence or absence of a sample and capturing the phosphorylated substrate by a detection reagent. Briefly, the following two steps performed.
A kinase is allowed to react with an appropriate substrate in the presence and absence of a sample. Enzyme buffer is used as a control (−) instead of the sample, and the group treated with 100 nM of loxolitinib is used as a positive control. […]
Step 2. Fluorescence Detection […]

recombinant kallikrein-5 = biological target: T1, recombinant kallikrein-5 (Homo sapiens, UniProt Q9Y337); experiment: Kallikrein-5 enzymatic activity, fluorescent substrate Boc-Val-Pro-Arg-AMC; assay type: biochemical; conditions: 10 and 20 ppm; FIG. 2
T1 construct: purchased R&D Systems, USA
T1 sequence (Q9Y337 23-293): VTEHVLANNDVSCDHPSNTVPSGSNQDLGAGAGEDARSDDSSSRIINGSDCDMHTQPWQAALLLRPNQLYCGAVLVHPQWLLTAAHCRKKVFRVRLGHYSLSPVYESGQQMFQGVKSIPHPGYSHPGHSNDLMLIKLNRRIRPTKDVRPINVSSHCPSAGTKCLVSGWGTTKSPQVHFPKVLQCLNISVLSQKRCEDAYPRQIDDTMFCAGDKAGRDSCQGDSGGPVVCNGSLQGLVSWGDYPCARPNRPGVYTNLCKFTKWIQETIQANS
Description: To measure the enzymatic activity of kallikrein-5 which is a trypsin-like proteolytic enzyme present in skin keratinocytes, recombinant kallikrein-5 (R&D Systems, USA) was allowed to react with the fluorescently labeled substrate Boc-Val-Pro-Arg-AMC (R&D Systems, USA), and the enzymatic activity was measured. 50 μl of 2 μg/ml recombinant kallikrein-5 was treated with different concentrations (10 and 20 ppm) of isookanin and then allowed to react at room temperature for 10 minutes, and then 50 μl of 800 μM kallikrein-5 substrate was added thereto, followed by measurement in kinetic mode at 380 nm/480 nm fluorescence for 5 minutes. As a positive control, the trypsin inhibitor Leupeptin (Sigma Aldrich, USA) was used, and as a negative control, non-treated recombinant kallikrein was used. For evaluation of the degree of activity, based on the value obtained by subtracting the lowest fluorescence value from the highest fluorescence value among the measurement values under each condition, the fluorescence value of the group treated with isookanin was compared with the fluorescence value of the group not treated with isookanin, and the results are shown in FIG. 2.

COX-2 promoter = experiment: LPS-induced COX-2 promoter luciferase reporter in RAW 264.7 macrophages; assay type: cell-based, mouse; conditions: 1, 5 and 10 ppm, LPS 100 ng/mL, FIG. 4
Description: Mouse macrophages (RAW 264.7) were seeded in a 24-well microplate at a density of about 2×10^5 cells per well, and cultured in an incubator for 24 hours at 37° C. under 5% CO2. The RAW264.7 cells were transfected with the COX-2 promoter luciferase reporter plasmid, and then treated with 1, 5, and 10 ppm of isookanin, and then treated with LPS (100 ng/mL). After culturing, the cell culture was harvested. Subsequently, luciferase enzyme activity was measured using a microplate reader (Sunrise, Tecan, Switzerland). Mouse macrophages not treated with isookanin and LPS were used as a negative control (−).

PGE2 [1] = experiment: UV-induced PGE2 secretion in human epidermal keratinocytes (ELISA); assay type: cell-based; conditions: 1, 5 and 10 ppm, UVB 20 mJ/cm^2, FIG. 6
Description: Human epidermal keratinocytes (HEKs) were seeded in a 24-well microplate at a density of about 2×10^5 cells per well, and cultured in an incubator for 24 hours at 37° C. under 5% CO2. Thereafter, the cells were treated with each of 1, 5, and 10 ppm of isookanin, and then irradiated with UV light (UVB 20 mJ/cm^2), and then the cell culture medium was collected. Next, the secretion level of PGE2 was measured using an ELISA kit. As a negative control (−), human keratinocytes not treated with isookanin and UV light (UVB) were used.

PGE2 [2] = experiment: LPS-induced PGE2 secretion in RAW 264.7 macrophages (ELISA); assay type: cell-based, mouse; conditions: 1, 5 and 10 ppm, LPS 100 ng/mL, FIG. 7
Description: Mouse macrophages (RAW 264.7) were seeded in a 24-well microplate at a density of about 2×10^5 cells per well, and cultured in an incubator for 24 hours at 37° C. under 5% CO2. Thereafter, the cells were treated with each of 1, 5 and 10 ppm of isookanin, and then treated with LPS (100 ng/mL) and cultured, and then the cell culture medium was collected. Next, the secretion level of PGE2 was measured using an ELISA kit. As a negative control group (−), mouse macrophages not treated with isookanin and LPS were used.

HMEC-1 = experiment: PGE2-induced vascular endothelial cell tube formation on Matrigel; assay type: cell-based, human; conditions: 10 ppm, 2 hours pretreatment; 20 μM PGE2, 24 hours; FIGS. 10 and 11
Description: Human vascular endothelial cells (HMEC-1) were seeded in a Matrigel-coated 24-well plate at a density of 1.2×10^5 cells per well, and each well was pretreated with 10 ppm of isookanin for 2 hours. Next, each well was treated with PGE2 at a concentration of 20 μM and incubated for 24 hours. As a negative control, 100 ng/ml of VEGF was used. After 24 hours of incubation, the degree of vascular cell tube formation was observed using a microscope, and the results were photographed with a microscope camera and analyzed with Image J, and are shown in FIGS. 10 and 11.

Chain of Janus kinase 1 (P23458 whole entry, species assumed): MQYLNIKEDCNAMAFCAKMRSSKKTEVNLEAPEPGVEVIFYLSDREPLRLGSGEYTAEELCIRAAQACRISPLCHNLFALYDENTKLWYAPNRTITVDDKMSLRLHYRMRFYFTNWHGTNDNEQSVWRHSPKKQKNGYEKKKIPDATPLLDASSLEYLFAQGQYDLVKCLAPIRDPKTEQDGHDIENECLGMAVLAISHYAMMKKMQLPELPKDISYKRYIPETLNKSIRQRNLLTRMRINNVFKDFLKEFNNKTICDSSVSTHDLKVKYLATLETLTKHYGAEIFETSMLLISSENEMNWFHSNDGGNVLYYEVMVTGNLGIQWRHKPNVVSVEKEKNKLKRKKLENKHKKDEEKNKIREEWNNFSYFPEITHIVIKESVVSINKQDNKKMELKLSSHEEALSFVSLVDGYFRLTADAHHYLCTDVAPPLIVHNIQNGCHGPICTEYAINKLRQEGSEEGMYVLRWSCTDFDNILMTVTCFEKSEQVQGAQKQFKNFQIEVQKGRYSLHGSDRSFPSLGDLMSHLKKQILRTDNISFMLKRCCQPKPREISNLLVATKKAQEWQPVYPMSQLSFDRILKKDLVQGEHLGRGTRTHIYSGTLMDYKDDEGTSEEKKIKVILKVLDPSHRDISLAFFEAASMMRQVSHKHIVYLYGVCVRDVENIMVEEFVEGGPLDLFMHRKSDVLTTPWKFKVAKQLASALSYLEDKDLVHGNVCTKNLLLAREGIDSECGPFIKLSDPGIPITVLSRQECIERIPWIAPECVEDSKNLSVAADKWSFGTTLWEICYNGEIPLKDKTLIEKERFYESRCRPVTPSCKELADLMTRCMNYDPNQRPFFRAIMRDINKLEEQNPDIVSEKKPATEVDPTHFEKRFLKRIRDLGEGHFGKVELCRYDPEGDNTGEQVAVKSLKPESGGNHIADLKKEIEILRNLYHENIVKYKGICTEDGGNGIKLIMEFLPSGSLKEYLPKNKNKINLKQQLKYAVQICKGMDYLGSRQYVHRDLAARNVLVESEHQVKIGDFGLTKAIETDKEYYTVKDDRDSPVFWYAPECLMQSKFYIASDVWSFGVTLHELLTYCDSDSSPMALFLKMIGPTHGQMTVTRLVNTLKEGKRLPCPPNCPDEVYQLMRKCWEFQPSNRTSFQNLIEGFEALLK

O=C1C[C@@H](c2ccc(O)c(O)c2)Oc2c1ccc(O)c2O [isookanin]
inhibition of Janus kinase 1 activity (Janus kinase 1): significantly inhibited
inhibition of kallikrein-5 activity (recombinant kallikrein-5): inhibitory effect on kallikrein-5 activity in a concentration-dependent manner
inhibition of LPS-induced activation of COX-2 promoter (COX-2 promoter): inhibiting the LPS-induced activation of COX-2 promoter in a concentration-dependent manner
inhibition of UV-induced PGE2 expression (PGE2 [1]): inhibiting the expression of PGE2 in a concentration-dependent manner
inhibition of LPS-induced PGE2 expression (PGE2 [2]): inhibiting the LPS-induced expression of PGE2 in a concentration-dependent manner
inhibition of human vascular endothelial cell tube formation induced by PGE2 (HMEC-1): effectively inhibiting human vascular endothelial cell tube formation induced by PGE2
